From ChEMBL document CHEMBL1137751, “Molecular hybridization, synthesis, and biological evaluation of novel chroman I(Kr) and I(Ks) dual blockers” (Bioorg Med Chem Lett, 2009)
Activity calls are given as the source filed them. No cut-off for these calls is given here.

What was measured:
Heart [1] = assay: Antiarrhythmic activity in langendorff ischemia-reperfused Sprague-Dawley rat heart assessed as cardiac protection at 3 uM; assay type: functional, tissue-based
Heart [2] = assay: Cardioprotective effect in isolated langendorff ischemia-reperfused Sprague-Dawley rat heart assessed as duration of QTc intervals at 0.3 uM after 20 mins; assay type: functional
Heart [3] = assay: Cardioprotective effect in isolated langendorff ischemia-reperfused Sprague-Dawley rat heart assessed as duration of QTc intervals at 3 uM after 20 mins; assay type: functional
Heart [4] = assay: Cardioprotective effect in isolated langendorff ischemia-reperfused Sprague-Dawley rat heart assessed as reduction of heart rate at 3 uM after 20 mins by RR interval ECG signal; assay type: functional
Heart [5] = assay: Cardioprotective effect in isolated langendorff ischemia-reperfused Sprague-Dawley rat heart assessed as duration of QT intervals at 1 uM after 20 mins; assay type: functional
Heart [6] = assay: Antiarrhythmic activity in langendorff ischemia-reperfused Sprague-Dawley rat heart assessed as cardiac protection at 1 uM; assay type: functional, tissue-based
Heart [7] = assay: Cardioprotective effect in isolated langendorff ischemia-reperfused Sprague-Dawley rat heart assessed as reduction of heart rate at 0.3 uM after 20 mins by RR interval ECG signal; assay type: functional
Heart [8] = assay: AUC in isolated langendorff ischemia-reperfused Sprague-Dawley rat heart at 1 uM; assay type: ADME, tissue-based
Heart [9] = assay: Cardioprotective effect in isolated langendorff ischemia-reperfused Sprague-Dawley rat heart assessed as duration of QTc intervals at 1 uM after 20 mins; assay type: functional
Heart [10] = assay: Cardioprotective effect in isolated langendorff ischemia-reperfused Sprague-Dawley rat heart assessed as duration of QT intervals at 3 uM after 20 mins; assay type: functional
Heart [11] = assay: Cardioprotective effect in isolated langendorff ischemia-reperfused Sprague-Dawley rat heart assessed as reduction of heart rate at 1 uM after 20 mins by RR interval ECG signal; assay type: functional; parameters: scale not given: the % may be the effect or the level left
Heart [12] = assay: Cardioprotective effect in isolated langendorff ischemia-reperfused Sprague-Dawley rat heart assessed as duration of QT intervals at 0.3 uM after 20 mins; assay type: functional
[13] = target: T1, Voltage-gated inwardly rectifying potassium channel KCNH2 (Cavia porcellus, UniProt O08703); assay: Inhibition of ERG in guinea pig ventricular myocytes assessed as blockade of rapid delayed rectifier potassium current by whole cell patch-clamp technique
T1 sequence (O08703 whole entry): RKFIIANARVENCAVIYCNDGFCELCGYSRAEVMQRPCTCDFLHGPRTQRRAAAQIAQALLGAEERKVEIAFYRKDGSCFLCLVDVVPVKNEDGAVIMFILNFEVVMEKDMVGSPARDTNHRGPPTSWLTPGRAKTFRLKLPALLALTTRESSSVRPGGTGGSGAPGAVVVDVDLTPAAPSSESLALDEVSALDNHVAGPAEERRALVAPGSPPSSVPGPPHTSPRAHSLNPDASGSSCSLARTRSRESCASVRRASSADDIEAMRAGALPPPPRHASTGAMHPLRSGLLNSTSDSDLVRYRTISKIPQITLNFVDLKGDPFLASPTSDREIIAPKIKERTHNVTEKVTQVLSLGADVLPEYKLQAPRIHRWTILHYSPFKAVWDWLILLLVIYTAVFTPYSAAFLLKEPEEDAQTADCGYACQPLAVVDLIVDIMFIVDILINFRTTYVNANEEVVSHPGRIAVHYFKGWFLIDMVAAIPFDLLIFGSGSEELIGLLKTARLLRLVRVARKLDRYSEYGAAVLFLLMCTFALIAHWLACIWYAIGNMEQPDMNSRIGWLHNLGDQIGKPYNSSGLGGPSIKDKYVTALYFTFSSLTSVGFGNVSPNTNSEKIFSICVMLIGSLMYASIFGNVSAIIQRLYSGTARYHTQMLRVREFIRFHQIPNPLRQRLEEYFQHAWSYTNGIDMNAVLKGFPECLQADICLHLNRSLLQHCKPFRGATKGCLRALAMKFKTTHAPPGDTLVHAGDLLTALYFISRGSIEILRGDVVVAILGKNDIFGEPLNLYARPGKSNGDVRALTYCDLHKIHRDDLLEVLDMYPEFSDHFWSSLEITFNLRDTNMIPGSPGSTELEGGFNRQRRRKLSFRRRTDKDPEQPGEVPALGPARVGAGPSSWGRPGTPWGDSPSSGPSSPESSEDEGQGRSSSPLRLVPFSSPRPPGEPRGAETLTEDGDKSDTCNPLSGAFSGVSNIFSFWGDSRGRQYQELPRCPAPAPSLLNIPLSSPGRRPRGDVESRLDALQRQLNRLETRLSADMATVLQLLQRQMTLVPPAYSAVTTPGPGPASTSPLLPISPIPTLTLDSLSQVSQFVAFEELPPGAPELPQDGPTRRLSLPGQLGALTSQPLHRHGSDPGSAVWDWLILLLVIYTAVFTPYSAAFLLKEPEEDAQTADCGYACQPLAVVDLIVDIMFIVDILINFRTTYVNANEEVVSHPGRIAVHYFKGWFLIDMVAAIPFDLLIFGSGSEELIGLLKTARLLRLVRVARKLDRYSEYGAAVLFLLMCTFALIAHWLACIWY

[14] = target: T2, Potassium voltage-gated channel subfamily KQT member 1 (Cavia porcellus, UniProt O70344); assay: Inhibition of KVLQT1/minK in guinea pig ventricular myocytes assessed as blockade of slow delayed rectifier potassium current by whole cell patch-clamp technique; assay type: cell-based, Ventricular myocyte
T2 sequence (O70344 whole entry): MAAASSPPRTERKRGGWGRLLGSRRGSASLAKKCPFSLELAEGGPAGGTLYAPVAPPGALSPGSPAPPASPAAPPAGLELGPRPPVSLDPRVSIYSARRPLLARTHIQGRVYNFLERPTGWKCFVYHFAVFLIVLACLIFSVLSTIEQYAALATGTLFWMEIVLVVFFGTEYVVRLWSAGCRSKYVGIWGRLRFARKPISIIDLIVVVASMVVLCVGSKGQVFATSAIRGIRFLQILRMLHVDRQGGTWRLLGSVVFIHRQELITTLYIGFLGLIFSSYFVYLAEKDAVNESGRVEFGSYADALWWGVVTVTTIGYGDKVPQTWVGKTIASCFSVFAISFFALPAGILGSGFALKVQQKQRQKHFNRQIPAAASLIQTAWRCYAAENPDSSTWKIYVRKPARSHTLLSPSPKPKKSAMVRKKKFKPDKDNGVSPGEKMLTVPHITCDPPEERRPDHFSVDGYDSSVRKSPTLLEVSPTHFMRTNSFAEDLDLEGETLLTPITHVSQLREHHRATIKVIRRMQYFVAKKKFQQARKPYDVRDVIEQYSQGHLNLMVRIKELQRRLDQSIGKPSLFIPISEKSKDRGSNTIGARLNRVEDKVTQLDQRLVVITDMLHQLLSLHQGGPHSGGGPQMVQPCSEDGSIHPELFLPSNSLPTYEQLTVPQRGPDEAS

SMILES	Activity (Heart [5]) [%]	Activity (Heart [6])	Activity (Heart [9])	Activity (Heart [11]) [%]	IC50 [13] [µM]	IC50 [14] [µM]	further results
CCCOc1ccc2c(c1)/C(=N/N1CC(=O)N(CCCN3CCN(C)CC3)C1=O)CCO2	13	Active	2%	18	–	–	Activity (Heart [1]): Active; Activity (Heart [2]): 326.1 ms/s1/2; Activity (Heart [3]): 400.9 ms/s1/2; Activity (Heart [4]): 179 bpm; Activity (Heart [7]): 198 bpm; Activity (Heart [8]): Dose-dependent effect; Activity (Heart [10]): 248 ms; Activity (Heart [12]): 186.7 ms
CCOc1ccc2c(c1)/C(=N/N1CC(=O)N(CCCCN3CCN(C)CC3)C1=O)CCO2	–	–	–	–	6.15	> 10	–
CN1CCN(CCCCN2C(=O)CN(/N=C3\CCOc4ccc(O)cc43)C2=O)CC1	–	–	–	–	> 100	60	–
Cc1ccc2c(c1)/C(=N/N1CC(=O)N(CCCCN3CCN(C)CC3)C1=O)CCO2	–	–	–	–	> 10	> 100	–
CN1CCN(CCCCN2C(=O)CN(/N=C/c3ccc(-c4ccc(Cl)cc4)o3)C2=O)CC1 [AZIMILIDE]	8	Active	316.7 ms/s1/2	12	0.18	0.24	–
CN1CCN(CCCN2C(=O)CN(/N=C3\CCOc4ccc(Cl)cc43)C2=O)CC1	–	–	–	–	3.87	0.0058	–
CCCCc1oc2ccccc2c1C(=O)c1cc(I)c(OCCN(CC)CC)c(I)c1 [AMIODARONE]	12	Active	13%	17	–	–	–
O=C1CN(/N=C2\CCOc3ccc(O)cc32)C(=O)N1CCCCN1CCCCC1	–	–	–	–	> 10	5.4	–
